Experimental data as given in US3978035A, “13-Norleucine-14-desamido motilin, a method for preparing it and an agent containing it” (Max-Planck-Gesellschaft zur Forderung der Wissenschaften …, priority 1973, dated 1976).
Where a SMILES comes first, the peptide text is derived from it. [ ]: non-standard residue; d: D form. Nle = CCCC[C@H](N)C(=O)O

Experiment: biological activity in comparison with natural motilin
Details: after purification on ion exchangers; relative to naturally occurring motilin (method reference: J. C. Brown et al.)

Row | Compound | biological activity in comparison with natural motilin
1 | CCCC[C@H](NC(=O)[C@H](CCCNC(=N)N)NC(=O)[C@H](CCC(N)=O)NC(=O)[C@H](CC(C)C)NC(=O)[C@H](CCC(=O)O)NC(=O)CNC(=O)[C@H](Cc1ccc(O)cc1)NC(=O)[C@@H](NC(=O)[C@H](Cc1ccccc1)NC(=O)[C@@H](NC(=O)[C@@H]1CCCN1C(=O)[C@@H](NC(=O)[C@@H](N)Cc1ccccc1)C(C)C)[C@@H](C)CC)[C@@H](C)O)C(=O)N[C@@H](CCC(=O)O)C(=O)N[C@@H](CCC(=O)O)C(=O)N[C@@H](CCCCN)C(=O)N[C@@H](CCC(=O)O)C(=O)N[C@@H](CCCNC(=N)N)C(=O)N[C@@H](CC(N)=O)C(=O)N[C@@H](CCCCN)C(=O)NCC(=O)N[C@@H](CCC(N)=O)C(=O)O [13-norleucine-14-desamido-motilin] (H-FVPIFTYGELQR[Nle]EEKERNKGQ-OH) | above 90%
2 | CCCC[C@H](NC(=O)[C@H](CCCNC(=N)N)NC(=O)[C@H](CCC(N)=O)NC(=O)[C@H](CC(C)C)NC(=O)[C@H](CCC(=O)O)NC(=O)CNC(=O)[C@H](Cc1ccc(O)cc1)NC(=O)[C@@H](NC(=O)[C@H](Cc1ccccc1)NC(=O)[C@@H](NC(=O)[C@@H]1CCCN1C(=O)[C@@H](NC(=O)[C@@H](N)Cc1ccccc1)C(C)C)[C@@H](C)CC)[C@@H](C)O)C(=O)N[C@@H](CCC(=O)O)C(=O)N[C@@H](CCC(=O)O)C(=O)N[C@@H](CCCCN)C(=O)N[C@@H](CCC(=O)O)C(=O)N[C@@H](CCCNC(=N)N)C(=O)N[C@@H](CC(N)=O)C(=O)N[C@@H](CCCCN)C(=O)NCC(=O)N[C@@H](CCC(N)=O)C(=O)O [C1 -fraction] (H-FVPIFTYGELQR[Nle]EEKERNKGQ-OH) | over 90%
